{"source": "ChEMBL document CHEMBL4422651", "about": "“Revisiting tubercidin against kinetoplastid parasites: Aromatic substitutions at position 7 improve activity and reduce toxicity” (Eur J Med Chem, 2019)", "note": "Calls of active or inactive are those of the source. The rule behind the calls is not given here."}
{"biological_target": "not listed separately", "experiment": "(§1) Inhibition of [3H]-adenosine transport at Trypanosoma brucei Adenosine transporter P1 expressed in pentamidine/diminazene/melaminophenyl arsenical resistant Trypanosoma brucei B48 bloodstream forms after 60 secs by scintillation counting analysis", "conditions": "not given", "units": {"Ki": "nM"}}
{"molecule": "Nc1ncnc2c1ccn2[C@@H]1O[C@H](CO)[C@@H](O)[C@H]1O", "note": "[TUBERCIDIN]", "Ki": 78000}
{"molecule": "Nc1ncnc2c1c(-c1ccncc1)cn2[C@@H]1O[C@H](CO)[C@@H](O)[C@H]1O", "Ki": 12500}
{"molecule": "Nc1ncnc2c1c(-c1cccnc1)cn2[C@@H]1O[C@H](CO)[C@@H](O)[C@H]1O", "Ki": 21700}
{"tested_on": "Trypanosoma brucei", "experiment": "as §1", "conditions": "not given", "units": {"Km": "µM"}}
{"molecule": "Nc1ncnc2c1ncn2[C@@H]1O[C@H](CO)[C@@H](O)[C@H]1O", "Km": 0.16}
{"tested_on": "Trypanosoma congolense", "experiment": "Antitrypanosomal activity against Trypanosoma congolense by resazurin assay", "type": "functional, organism-based", "conditions": "not given", "units": {"EC50": "nM"}}
{"molecule": "N=C(N)c1ccc(/N=N/Nc2ccc(C(=N)N)cc2)cc1", "note": "[DIMINAZENE]", "EC50": 220}
{"molecule": "N=C(N)c1ccc(OCCCCCOc2ccc(C(=N)N)cc2)cc1", "note": "[PENTAMIDINE]", "EC50": 1900}
{"tested_on": "Trypanosoma brucei", "experiment": "Antitrypanosomal activity against pentamidine/diminazene/melaminophenyl arsenical resistant Trypanosoma brucei B48 after 48 hrs by alamar blue assay", "type": "functional, organism-based", "conditions": "B48, 48 h", "units": {"EC50": "nM"}}
{"molecule": "Nc1ncnc2c1ccn2[C@@H]1O[C@H](CO)[C@@H](O)[C@H]1O", "note": "[TUBERCIDIN]", "EC50": 4300}
{"molecule": "CC[n+]1c(-c2ccccc2)c2cc(N/N=N/c3cccc(C(=N)N)c3)ccc2c2ccc(N)cc21", "note": "[ISOMETAMIDIUM]", "EC50": 560}
{"molecule": "N=C(N)c1ccc(/N=N/Nc2ccc(C(=N)N)cc2)cc1", "note": "[DIMINAZENE]", "EC50": 7200}
{"molecule": "N=C(N)c1ccc(OCCCCCOc2ccc(C(=N)N)cc2)cc1", "note": "[PENTAMIDINE]", "EC50": 990}
{"tested_on": "Trypanosoma brucei brucei", "experiment": "Antitrypanosomal activity against Trypanosoma brucei brucei Squib 427 after 48 hrs by alamar blue assay", "type": "functional, organism-based", "conditions": "Squib 427, 48 h", "units": {"EC50": "nM"}}
{"molecule": "Nc1ncnc2c1ccn2[C@@H]1O[C@H](CO)[C@@H](O)[C@H]1O", "note": "[TUBERCIDIN]", "EC50": 480}
{"molecule": "Nc1ncnc2c1c(-c1ccncc1)cn2[C@@H]1O[C@H](CO)[C@@H](O)[C@H]1O", "EC50": "> 64000"}
{"molecule": "Nc1ncnc2c1c(-c1cccnc1)cn2[C@@H]1O[C@H](CO)[C@@H](O)[C@H]1O", "EC50": "> 64000"}
{"molecule": "Nc1ncnc2c1c(-c1ccc(F)cc1)cn2[C@@H]1O[C@H](CO)[C@@H](O)[C@H]1O", "EC50": 8810}
{"biological_target": "not listed separately", "experiment": "(§2) Inhibition of [3H]-adenosine transport at Trypanosoma brucei Adenosine transporter P2 expressed in pentamidine/diminazene/melaminophenyl arsenical resistant Trypanosoma brucei B48 bloodstream forms after 60 secs by scintillation counting analysis", "conditions": "not given", "units": {"Ki": "nM"}}
{"molecule": "Nc1ncnc2c1ccn2[C@@H]1O[C@H](CO)[C@@H](O)[C@H]1O", "note": "[TUBERCIDIN]", "Ki": 3800}
{"molecule": "Nc1ncnc2c1c(-c1ccncc1)cn2[C@@H]1O[C@H](CO)[C@@H](O)[C@H]1O", "Ki": 9340}
{"molecule": "Nc1ncnc2c1c(-c1cccnc1)cn2[C@@H]1O[C@H](CO)[C@@H](O)[C@H]1O", "Ki": 49300}
{"tested_on": "Trypanosoma brucei", "experiment": "as §2", "conditions": "not given", "units": {"Km": "µM"}}
{"molecule": "Nc1ncnc2c1ncn2[C@@H]1O[C@H](CO)[C@@H](O)[C@H]1O", "Km": 0.53}
{"tested_on": "MRC5", "experiment": "Cytotoxicity against human MRC5 cells assessed as reduction in cell viability after 3 days by resazurin dye-based assay", "conditions": "MRC5, 72 h", "units": {"EC50": "nM"}}
{"molecule": "Nc1ncnc2c1ccn2[C@@H]1O[C@H](CO)[C@@H](O)[C@H]1O", "note": "[TUBERCIDIN]", "EC50": 2230}
{"molecule": "Nc1ncnc2c1c(-c1ccncc1)cn2[C@@H]1O[C@H](CO)[C@@H](O)[C@H]1O", "EC50": 55800}
{"molecule": "Nc1ncnc2c1c(-c1cccnc1)cn2[C@@H]1O[C@H](CO)[C@@H](O)[C@H]1O", "EC50": "> 64000"}
{"molecule": "Nc1ncnc2c1c(-c1ccc(F)cc1)cn2[C@@H]1O[C@H](CO)[C@@H](O)[C@H]1O", "EC50": "> 64000"}
{"tested_on": "Trypanosoma brucei rhodesiense", "experiment": "Antitrypanosomal activity against Trypanosoma brucei rhodesiense STIB-900 after 48 hrs by alamar blue assay", "type": "functional, organism-based", "conditions": "STIB-900, 48 h", "units": {"EC50": "nM"}}
{"molecule": "Nc1ncnc2c1c(-c1ccc(F)cc1)cn2[C@@H]1O[C@H](CO)[C@@H](O)[C@H]1O", "EC50": 14700}
{"tested_on": "Trypanosoma brucei", "experiment": "Antitrypanosomal activity against wild type Trypanosoma brucei Lister 427 after 48 hrs by alamar blue assay", "type": "functional, organism-based", "conditions": "Lister 427, 48 h", "units": {"EC50": "nM"}}
{"molecule": "Nc1ncnc2c1ccn2[C@@H]1O[C@H](CO)[C@@H](O)[C@H]1O", "note": "[TUBERCIDIN]", "EC50": 150}
{"molecule": "CC[n+]1c(-c2ccccc2)c2cc(N/N=N/c3cccc(C(=N)N)c3)ccc2c2ccc(N)cc21", "note": "[ISOMETAMIDIUM]", "EC50": 650}
{"molecule": "N=C(N)c1ccc(/N=N/Nc2ccc(C(=N)N)cc2)cc1", "note": "[DIMINAZENE]", "EC50": 420}
{"molecule": "N=C(N)c1ccc(OCCCCCOc2ccc(C(=N)N)cc2)cc1", "note": "[PENTAMIDINE]", "EC50": 11}
{"tested_on": "not listed separately", "experiment": "Selectivity index, ratio of EC50 for human MRC5 cells to EC50 for Trypanosoma brucei rhodesiense STIB-900", "type": "toxicity", "conditions": "read-out: Ratio EC50"}
{"molecule": "Nc1ncnc2c1c(-c1ccc(F)cc1)cn2[C@@H]1O[C@H](CO)[C@@H](O)[C@H]1O", "selectivity ratio": "> 4.4"}
{"tested_on": "Trypanosoma cruzi", "experiment": "(§3) Antitrypanosomal activity against nifurtimox-sensitive Trypanosoma cruzi Tulahuen CL2 harboring beta-galactosidase infected in human MRC5 cells after 7 days by resazurin dye-based assay", "type": "functional, organism-based", "conditions": "not given"}
{"molecule": "Nc1ncnc2c1c(-c1ccncc1)cn2[C@@H]1O[C@H](CO)[C@@H](O)[C@H]1O", "Activity": "inactive"}
{"molecule": "Nc1ncnc2c1c(-c1cccnc1)cn2[C@@H]1O[C@H](CO)[C@@H](O)[C@H]1O", "Activity": "inactive"}
{"tested_on": "Trypanosoma cruzi", "experiment": "as §3", "type": "functional, organism-based", "conditions": "Tulahuen CL2, MRC5, 168 h", "units": {"EC50": "nM"}}
{"molecule": "Nc1ncnc2c1ccn2[C@@H]1O[C@H](CO)[C@@H](O)[C@H]1O", "note": "[TUBERCIDIN]", "EC50": 340}
{"molecule": "Nc1ncnc2c1c(-c1ccc(F)cc1)cn2[C@@H]1O[C@H](CO)[C@@H](O)[C@H]1O", "EC50": 490}
{"tested_on": "Trypanosoma brucei", "experiment": "Antitrypanosomal activity against Trypanosoma brucei TbAT1-KO after 48 hrs by alamar blue assay", "type": "functional, organism-based", "conditions": "not given", "units": {"EC50": "nM"}}
{"molecule": "Nc1ncnc2c1ccn2[C@@H]1O[C@H](CO)[C@@H](O)[C@H]1O", "note": "[TUBERCIDIN]", "EC50": 2610}
{"molecule": "CC[n+]1c(-c2ccccc2)c2cc(N/N=N/c3cccc(C(=N)N)c3)ccc2c2ccc(N)cc21", "note": "[ISOMETAMIDIUM]", "EC50": 750}
{"molecule": "N=C(N)c1ccc(/N=N/Nc2ccc(C(=N)N)cc2)cc1", "note": "[DIMINAZENE]", "EC50": 4500}
{"molecule": "N=C(N)c1ccc(OCCCCCOc2ccc(C(=N)N)cc2)cc1", "note": "[PENTAMIDINE]", "EC50": 18}
{"tested_on": "Leishmania infantum", "experiment": "Antileishmanial activity against Leishmania infantum amastigotes infected in Swiss mouse primary peritoneal macrophages assessed as reduction in parasite burden after 5 days by Giemsa staining-based microscopic analysis", "type": "functional, organism-based", "conditions": "120 h", "units": {"EC50": "nM"}}
{"molecule": "Nc1ncnc2c1ccn2[C@@H]1O[C@H](CO)[C@@H](O)[C@H]1O", "note": "[TUBERCIDIN]", "EC50": 130}
{"tested_on": "not listed separately", "experiment": "Selectivity index, ratio of EC50 for human MRC5 cells to EC50 for Trypanosoma brucei brucei Squib 427", "type": "toxicity", "conditions": "read-out: Ratio EC50"}
{"molecule": "Nc1ncnc2c1ccn2[C@@H]1O[C@H](CO)[C@@H](O)[C@H]1O", "note": "[TUBERCIDIN]", "selectivity ratio": 4.6}
{"molecule": "Nc1ncnc2c1c(-c1ccc(F)cc1)cn2[C@@H]1O[C@H](CO)[C@@H](O)[C@H]1O", "selectivity ratio": "> 7.3"}
{"tested_on": "Trypanosoma brucei", "experiment": "Antitrypanosomal activity against isometamidium resistant Trypanosoma brucei ISMR1 after 48 hrs by alamar blue assay", "type": "functional, organism-based", "conditions": "ISMR1, 48 h", "units": {"EC50": "nM"}}
{"molecule": "Nc1ncnc2c1ccn2[C@@H]1O[C@H](CO)[C@@H](O)[C@H]1O", "note": "[TUBERCIDIN]", "EC50": 1700}
{"molecule": "CC[n+]1c(-c2ccccc2)c2cc(N/N=N/c3cccc(C(=N)N)c3)ccc2c2ccc(N)cc21", "note": "[ISOMETAMIDIUM]", "EC50": 3100}
{"molecule": "N=C(N)c1ccc(/N=N/Nc2ccc(C(=N)N)cc2)cc1", "note": "[DIMINAZENE]", "EC50": 2900}
{"molecule": "N=C(N)c1ccc(OCCCCCOc2ccc(C(=N)N)cc2)cc1", "note": "[PENTAMIDINE]", "EC50": 140}
{"tested_on": "Peritoneal macrophage", "experiment": "Cytotoxicity against Swiss mouse primary peritoneal macrophages assessed as reduction in cell viability after 5 days", "type": "cell-based", "conditions": "mouse, peritoneal macrophage, 120 h"}
{"molecule": "Nc1ncnc2c1ccn2[C@@H]1O[C@H](CO)[C@@H](O)[C@H]1O", "note": "[TUBERCIDIN]", "Activity": "Toxic"}
{"tested_on": "not listed separately", "experiment": "Selectivity index, ratio of EC50 for human MRC5 cells to EC50 for nifurtimox-sensitive Trypanosoma cruzi Tulahuen CL2 harboring beta-galactosidase", "type": "toxicity", "conditions": "read-out: Ratio EC50"}
{"molecule": "Nc1ncnc2c1ccn2[C@@H]1O[C@H](CO)[C@@H](O)[C@H]1O", "note": "[TUBERCIDIN]", "selectivity ratio": 6.5}
{"molecule": "Nc1ncnc2c1c(-c1ccc(F)cc1)cn2[C@@H]1O[C@H](CO)[C@@H](O)[C@H]1O", "selectivity ratio": "> 130"}
{"tested_on": "Trypanosoma cruzi", "experiment": "Potency index, ratio of EC50 for benznidazole to EC50 for test compound for antitrypanosomal activity against nifurtimox-sensitive Trypanosoma cruzi Tulahuen CL2 harboring beta-galactosidase infected in human MRC5 cells after 7 days by resazurin dye-based assay", "type": "functional", "conditions": "not given"}
{"molecule": "Nc1ncnc2c1c(-c1ccc(F)cc1)cn2[C@@H]1O[C@H](CO)[C@@H](O)[C@H]1O", "Ratio EC50": "<=10"}
